From article PMC8635778 (Angewandte Chemie (International ed. in English), 2020)

Legend:
[1] = tested on: papillary RCC cell line (ACHN) orthotopic xenograft; experiment: fluorescence imaging of orthotopic papillary RCC xenograft; type: in vivo, mice; conditions: cancerous vs normal kidney tissue
[2] = mouse, in vivo, iv

CC1(C)C(/C=C/C=C/C=C/C=C2\N(CCCCS(=O)(=O)O)c3ccc4ccccc4c3C2(C)C)=[N+](CCCCS(=O)(=O)[O-])c2ccc3ccccc3c21 [ICG, indocyanine green]
hyperfluorescent imaging of RCC in the kidneys (in words) [1]: failed to hyperfluorescently light up RCC
amount found in the feces [2]: 85.3 % ID
amount in feces, times higher than ICG-PEG45 [2]: 29.8 times
